In one assay the test system is MraY/MurG couple. Description: Coupled assay of MraY and MurG using HP20ss beads. To be noted: titration of the MraY/MurG couple, 0.5 mg/mL protein at 10 min time (FIG. 5, Panel B). The assay is classed as biochemical, E. coli. How it is done:
The MraY/MurG coupled assay reaction procedure was identical to that described above for the assay of MraY. However, quantitation of the coupled system was performed by monitoring the incorporation of radiolabeled MurG co-substrate UDP-N-[1-^14C]acetyl-glucosamine into the lipophilic product Lipid II. Accordingly, this assay mixture was modified to contain 100 mM Tris, pH 7.5, 30 mM MgCl2, 0.15% Triton X-100, 40 μM decaprenol phosphate, 100 μM UDP-MurNAc-pentapeptide, 100 ug/ml phosphatidyl glycerol, and 20 μM, 0.1 μCi UDP-N-[1-^14C]acetyl-glucosamine and typically 0.5 mg/mL of E. coli cell membranes in a final volume of 50 μL. All other procedures, times and temperatures were identical to those described for the MraY assay.

The next assay has as its target T1, MraY (Escherichia coli, UniProt P0A6W3).
T1 construct: MraY activity measured in membranes prepared from wild-type E. coli; endogenous in cells
T1 sequence (P0A6W3 1-360): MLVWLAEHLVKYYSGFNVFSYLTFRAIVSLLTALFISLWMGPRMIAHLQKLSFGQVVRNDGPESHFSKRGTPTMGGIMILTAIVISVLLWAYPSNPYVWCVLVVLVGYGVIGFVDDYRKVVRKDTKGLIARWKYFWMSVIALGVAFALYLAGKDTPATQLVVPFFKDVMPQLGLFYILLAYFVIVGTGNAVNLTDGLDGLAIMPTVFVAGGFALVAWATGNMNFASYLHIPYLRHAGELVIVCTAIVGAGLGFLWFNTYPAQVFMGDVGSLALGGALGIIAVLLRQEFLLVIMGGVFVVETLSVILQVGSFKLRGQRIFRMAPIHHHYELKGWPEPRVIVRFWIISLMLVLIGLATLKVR
Description: Assay of MraY using HP20ss hydrophobic beads. The assay is classed as biochemical, E. coli. How it is done: The reaction catalyzed transfer and use of the radiotracer are shown in FIG. 2, Panel A. The general course of manipulations are diagramed in FIG. 2, Panel D and described in the text. The reaction mixture for the MraY assay included 100 mM Tris, pH 7.5, 30 mM MgCl2, 0.15% Triton X-100, 100 μg/ml Phosphatidyl Glycerol, 40 μM decaprenol phosphate, 14 μM UDP-MurNAC-[^14C]pentapeptide (prepared as described above) and typically 0.5 mg/mL of E. coli cell membranes in a final volume of 50 μL. The phosphatidyl glycerol and decaprenol phosphate, which are supplied in organic solvent, were dried in the reaction tube before the addition of the other components.
The HP20ss resin used to isolate the Lipid I product from the above reaction mixture was equilibrated before use. Briefly, the dry resin was mixed thoroughly with excess methanol in a beaker and allowed to settle for 45 min. […]
For assays whereby the reaction is analyzed at various times, a larger reaction volume was prepared (50 μL is typically appropriate for each time point). […] The filterplate was then quantitated by liquid scintillation spectrometry with a TOPCOUNT (PERKIN ELMER LIFE SCIENCES, Downers Grove, Ill.) using 200 μL of scintillation cocktail (MICROSCINT 40, PERKIN ELMER LIFE SCIENCES, Downers Grove, Ill.) per well.

Where two headings read alike, the source gives them in different places.

As usually defined, the IC50 is the point on the concentration scale where inhibition reaches its midpoint. Take ramoplanin: the IC50 result in the assay with MraY/MurG couple was “approximately 17 μg/mL”; with MraY/MurG couple (listed as ramoplainin), 17 µg/mL.

With tunicamycin, the 50% inhibitory concentration (IC50) result against MraY (membranes from wild-type E. coli, bead format (text to FIG. 5, Panel A)) was “approximately 1 μg/mL”; at MraY (titration of the MraY assay, 0.5 mg/mL protein at 10 min time (FIG. 5, Panel A), read-out: IC50), 1100 nM.
